Literature values, collected in publication PMC3313018 (Cancer Chemotherapy and Pharmacology, 2011).

System: patients with advanced renal cell carcinoma
Conditions: cited from earlier work

CO[C@H]1C[C@@H]2CC[C@@H](C)[C@@](O)(O2)C(=O)C(=O)N2CCCC[C@H]2C(=O)O[C@H]([C@H](C)C[C@@H]2CC[C@@H](OCCO)[C@H](OC)C2)CC(=O)[C@H](C)/C=C(\C)[C@@H](O)[C@@H](OC)C(=O)[C@H](C)C[C@H](C)/C=C/C=C/C=C/1C [everolimus]
Incidence of pneumonitis (Japanese patients with advanced renal cell carcinoma ref 18): 27% | Incidence of pneumonitis, overall rate (patients with renal cell carcinoma overall ref 18): 11%
